Columns and labels:
[1] = test system: cytokines (inflammatory profile); assay: Cytokine arrays in aneurysm-induced cerebral vasculature; type: in vivo, mouse; conditions: aneurysmal mice, 2 versus 3 weeks; FIG. 5
Source text: (§1) Mouse Intracranial Aneurysm Model. Murine intracranial aneurysms were created in female 8-12 week-old C57BL/6 mice (Charles River Laboratories, Wilmington, Mass.) using a method described previously (Hosaka et al., Journal of neurointerventional surgery. 2014; 6:474-9). Briefly, the left common carotid artery and the right renal artery were ligated to induce hypertension. One week later, an Alzet micro-osmotic pump model 1004 (DURECT Corp, Cupertino, Calif.) was implanted subdermally to deliver Angiotensin II (Bachem AG, Switzerland) at 1000 ng/kg/min. 10 μL of 0.8% porcine elastase (Worthington Biochemical Corp, Lakewood, N.J.) in normal saline was injected into the right basal cistern using stereotactic coordinates: 1.2 mm rostral of bregma, 0.7 mm lateral of midline and 5.3 mm ventral of the dorsal aspect of the skull. The animals were fed a hypertensive diet with 8% NaCl and 0.12% BAPN (TEKLAD). Clopidogrel was administered at 1 mg/kg in normal saline via intraperitoneal injection every two days. Reparixin was administered at 10 mg/kg in normal saline via intraperitoneal injection every two days. PBS-treated animals received 10 μL injection of phosphate buffered saline subcutaneously every two days. […] In addition, cytokines were analyzed in human cerebral aneurysm, superficial temporal artery, and peripheral intravenous blood specimens that were collected at the time of surgery.

[2] = test system: murine intracranial aneurysms; assay: Mouse intracranial aneurysm model (aneurysm formation); type: in vivo, mouse (C57BL/6)
Source text: as §1, with “Each Circle of Willis was examined by a blinded observer” for “In addition, cytokines were analyzed in human cerebral aneurysm, superficial temporal artery,”, “aneurysm formation was recorded (yes/no). […]” for “peripheral intravenous blood specimens that were collected at the time of surgery.”

| Compound | attenuation of inflammatory profile (temporal dynamics of 96 cytokines) [1] | mice developing aneurysms ([2]; 1 mg/kg clopidogrel, controls 59%, p<0.001, FIG. 3A) [%] | mice developing aneurysms ([2]; 10 mg/kg reparixin, PBS:DMSO treated control mice 59%, p=0.0163, FIG. 3B) [%] |
| --- | --- | --- | --- |
| COC(=O)[C@H](c1ccccc1Cl)N1CCc2sccc2C1 [clopidogrel] | moderate response | 0 | – |
| CC(C)Cc1ccc([C@@H](C)C(=O)NS(C)(=O)=O)cc1 [reparixin] | robust anti-inflammatory effects | – | 14 |

Reference: US20220054463A1, “METHODS OF TREATING ANEURYSMS” (University of Pittsburgh-of the Commonwealth System of …, priority 2020, published 2022)
